Source: US20230219965A1 (KSQ Therapeutics, Inc., priority 2020, published 2023)
Where two headings read alike, the source gives them in different places.

Key:
[1] = molecular target: USP1/UAF1 enzyme (Homo sapiens, UniProt O94782); test: USP1/UAF1 deubiquitination assay (ubiquitin-rhodamine 110 substrate); format: biochemical; conditions: read-out: USP1 IC50 (Ub-Rho)
Outline: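 Cleavage of 150 nM ubiquitin-rhodamine 110 by 0.05 nM USP1/UAF1 was followed as fluorescence (Ex480/Em540, kinetic, 30 min) in Tris-HCl pH 7.8 buffer with EDTA, BSA, DTT and Tween-20. Compounds, top 10 μM, were preincubated with enzyme 10 min; % inhibition against no-enzyme and DMSO wells gave four-parameter IC50s.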

[2] = ADME solubility determination in PBS at pH 2.0 and pH 7.4; format: physicochemical; conditions: phosphate buffered saline, 25 °C, thermodynamic from solid
Outline: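 Solubility was read by LC-MS/MS on centrifuged supernatants, calibrated to a known-concentration standard and corrected for dilution. Compound, dried down from 10 mM DMSO stock, was equilibrated 24 h at 25° C with shaking in PBS at pH 2.0 or pH 7.4.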

[3] = Liver microsomal metabolic stability, human liver microsomes (HLM); conditions: human, liver microsomes
[4] = tested on: Ub-PCNA levels in the nucleus of ES2 cells (USP1 activity); test: ES2 Ub-PCNA immunofluorescence (IF) assay; format: cell-based; conditions: Homo sapiens, ES-2; ES2 cells, 3 hours, Ub-PCNA immunofluorescence; read-out: USP1 IC50 (Ub-PCNA)
Outline: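 AC50 derived from percent Ub-PCNA-positive nuclei, positivity set by a 95% cutoff from untreated-well intensities. Readout by imaging immunofluorescence (anti-Ub-PCNA, DAPI nuclear mask) after methanol fixation. Compound exposure: 3 h at 37° C, 0.3% DMSO final, on cells plated overnight.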

[5] = Liver microsomal metabolic stability, rat liver microsomes (RLM); conditions: rat, liver microsomes, t1/2 (min) in RLM, 1 μM compound, 1 mg/mL microsomes, NADPH
[6] = pH 2, aqueous buffer, PBS pH 2.0, 25° C., read-out: Solubility at pH 2.0
[7] = pH 7.4, aqueous buffer, PBS pH 7.4, 25° C., read-out: Solubility at pH 7.4

Sequence of USP1/UAF1 enzyme (O94782 whole entry): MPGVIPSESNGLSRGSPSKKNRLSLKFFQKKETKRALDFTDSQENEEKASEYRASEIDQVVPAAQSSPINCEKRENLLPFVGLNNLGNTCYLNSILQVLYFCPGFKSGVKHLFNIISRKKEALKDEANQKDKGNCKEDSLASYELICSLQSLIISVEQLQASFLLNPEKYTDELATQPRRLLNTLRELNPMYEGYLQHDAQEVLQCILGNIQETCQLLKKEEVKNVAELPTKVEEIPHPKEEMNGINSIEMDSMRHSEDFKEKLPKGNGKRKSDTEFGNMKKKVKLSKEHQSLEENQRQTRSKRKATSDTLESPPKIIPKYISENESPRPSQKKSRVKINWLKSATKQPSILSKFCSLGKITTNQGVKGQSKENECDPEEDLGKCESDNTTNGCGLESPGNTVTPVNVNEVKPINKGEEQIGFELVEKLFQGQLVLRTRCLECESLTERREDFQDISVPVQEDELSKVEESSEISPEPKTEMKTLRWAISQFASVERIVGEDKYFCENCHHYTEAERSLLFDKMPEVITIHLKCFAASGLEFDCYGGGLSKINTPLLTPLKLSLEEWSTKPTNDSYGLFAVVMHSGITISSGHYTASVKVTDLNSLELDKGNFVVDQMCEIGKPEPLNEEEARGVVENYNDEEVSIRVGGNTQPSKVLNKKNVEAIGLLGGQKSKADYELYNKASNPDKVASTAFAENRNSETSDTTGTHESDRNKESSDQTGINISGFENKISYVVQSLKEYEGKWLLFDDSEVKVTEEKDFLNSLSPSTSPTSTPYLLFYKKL
Sequence of USP1/UAF1 enzyme (Q8TAF3 whole entry partner): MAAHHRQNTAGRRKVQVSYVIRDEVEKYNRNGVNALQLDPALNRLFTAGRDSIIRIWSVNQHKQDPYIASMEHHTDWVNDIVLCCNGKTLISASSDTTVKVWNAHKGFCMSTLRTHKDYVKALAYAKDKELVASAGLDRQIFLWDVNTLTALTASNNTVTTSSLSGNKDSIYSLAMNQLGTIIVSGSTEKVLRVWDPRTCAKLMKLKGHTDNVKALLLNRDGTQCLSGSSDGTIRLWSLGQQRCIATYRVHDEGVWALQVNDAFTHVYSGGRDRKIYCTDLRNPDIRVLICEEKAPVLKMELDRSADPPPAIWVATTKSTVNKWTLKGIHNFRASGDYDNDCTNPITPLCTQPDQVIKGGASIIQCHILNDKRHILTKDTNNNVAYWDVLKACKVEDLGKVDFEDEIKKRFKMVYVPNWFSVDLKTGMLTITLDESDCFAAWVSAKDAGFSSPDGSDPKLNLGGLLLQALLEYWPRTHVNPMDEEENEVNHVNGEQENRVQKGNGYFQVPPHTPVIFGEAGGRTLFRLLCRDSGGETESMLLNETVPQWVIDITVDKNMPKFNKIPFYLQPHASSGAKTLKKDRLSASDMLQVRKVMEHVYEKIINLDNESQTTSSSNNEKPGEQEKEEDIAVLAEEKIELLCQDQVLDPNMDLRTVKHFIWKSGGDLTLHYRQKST

| IC50 [1] [nM] | solubility at 24 h [2, 6] [µM] | solubility at 24 h [2, 7] [µM] | half-life at 1 μM [3] [min] | IC50 [4] [nM] | half-life at 1 μM [5] [min] | SMILES |
| --- | --- | --- | --- | --- | --- | --- |
| < 100 | < 10 | < 10 | < 25 | 100 to 500 | < 25 | CCn1cc(C(F)(F)F)nc1-c1ccc(CN2C(=O)CCn3nc(-c4c(Cl)cnn4C4(COC)CC4)cc32)cc1F [Example 153] |
| < 100 | < 10 | < 10 | > 25 | 100 to 500 | < 25 | CCn1cc(C(F)(F)F)nc1-c1ccc(CN2C(=O)CCn3nc(-c4c(Cl)cnn4C4(COC)CC4)cc32)cc1 [Example 159] |
| < 100 | < 10 | < 10 | < 25 | 100 to 500 | < 25 | CCn1cc(C(F)(F)F)nc1-c1ccc(CN2C(=O)CCn3nc(-c4c(Cl)cnn4C(C)COC)cc32)cc1F (stereo not drawn) [Example 160] |
| < 100 | < 10 | < 10 | > 25 | < 100 | > 25 | COc1ncnc(C2CC2)c1-c1nc2n(n1)CCC(=O)N2Cc1ccc(-c2nc(C(F)(F)F)cn2C(C)C)c(F)c1 [Example 164, 2-(4-cyclopropyl-6-methoxypyrimidin-5-yl)-4-(3-fluoro-4-(1-isopropyl-4-(trifluoromethyl)-1H-imidazol-2-yl)benzyl)-6,7-dihydro-[1,2,4]triazolo[1,5-α]pyrimidin-5(4H)-one] |
| < 100 | < 10 | < 10 | > 25 | 100 to 500 | > 25 | COc1cc(CN2C(=O)CCn3nc(-c4c(Cl)cnn4C(C)C)nc32)ccc1-c1nc(C(F)(F)F)cn1C(C)C [Example 165] |
| 100 to 500 | ≥ 10 | ≥ 10 | > 25 | 100 to 500 | > 25 | COc1cc(CN2C(=O)CCn3nc(-c4c(OC)ncnc4C4CC4)nc32)ccc1-c1nc(C(F)(F)F)cn1C(C)C [Example 166] |
| < 100 | < 10 | < 10 | > 25 | < 100 | > 25 | COc1ncnc(C2CC2)c1-c1nc2n(n1)CCC(=O)N2Cc1ccc(-c2nc(C(F)(F)F)cn2C(C)C)cc1 [Example 168] |
| < 100 | ≥ 10 | < 10 | > 25 | 100 to 500 | > 25 | COc1ncnc(C2CC2)c1-c1nc2n(n1)CCC(=O)N2C(C)c1ccc(-c2nc(C(F)(F)F)cn2C(C)C)cc1 (stereo not drawn) [Example 169] |
| < 100 | ≥ 10 | ≥ 10 | > 25 | < 100 | > 25 | COc1ncnc(C2CC2)c1-c1nc2n(n1)CCC(=O)N2Cc1ccc(-c2nc(C(F)(F)F)cn2C)c(F)c1 [Example 170] |
| < 100 | ≥ 10 | ≥ 10 | > 25 | < 100 | > 25 | CCn1cc(C(F)(F)F)nc1-c1ccc(CN2C(=O)CCn3nc(-c4c(OC)ncnc4C4CC4)nc32)cc1 [Example 171] |
| < 100 | ≥ 10 | ≥ 10 | > 25 | 100 to 500 | > 25 | COc1ncnc(C2CC2)c1-c1nc2n(n1)CCC(=O)N2Cc1ccc(-c2nc(C(F)(F)F)cn2C(C)C)c(Cl)c1 [Example 172] |
| < 100 | ≥ 10 | ≥ 10 | > 25 | < 100 | > 25 | COc1ncnc(C2CC2)c1-c1nc2n(n1)CCC(=O)N2[C@@H](C)c1ccc(-c2nc(C(F)(F)F)cn2C(C)C)c(F)c1 [Example 173] |
| < 100 | ≥ 10 | ≥ 10 | > 25 | < 100 | > 25 | COc1ncnc(C2CC2)c1-c1nc2n(n1)CCC(=O)N2[C@H](C)c1ccc(-c2nc(C(F)(F)F)cn2C(C)C)c(F)c1 [Example 174] |
| < 100 | ≥ 10 | ≥ 10 | > 25 | < 100 | > 25 | CCn1cc(C(F)(F)F)nc1-c1ccc(CN2C(=O)CCn3nc(-c4c(OC)ncnc4C4CC4)nc32)cc1Cl [Example 175] |
| < 100 | ≥ 10 | ≥ 10 | > 25 | < 100 | > 25 | CCn1cc(C(F)(F)F)nc1-c1c(F)cc(CN2C(=O)CCn3nc(-c4c(OC)ncnc4C4CC4)nc32)cc1OC [Example 176] |
| < 100 | < 10 | < 10 | < 25 | < 100 | > 25 | CC(C)n1cc(C(F)(F)F)nc1-c1ccc([C@H](C)N2C(=O)CCn3nc(-c4c(Cl)cnn4C(C)C)nc32)cc1 [Example 177] |
| < 100 | ≥ 10 | < 10 | < 25 | < 100 | < 25 | CC(C)n1cc(C(F)(F)F)nc1-c1ccc([C@@H](C)N2C(=O)CCn3nc(-c4c(Cl)cnn4C(C)C)nc32)cc1 [Example 178] |
| < 100 | < 10 | < 10 | < 25 | 100 to 500 | < 25 | CCn1cc(C(F)(F)F)nc1-c1ccc([C@@H](C)N2C(=O)CCn3nc(-c4c(Cl)cnn4C(C)C)nc32)cc1OC [Example 180] |
| < 100 | < 10 | < 10 | < 25 | < 100 | > 25 | CCn1cc(C(F)(F)F)nc1-c1ccc([C@H](C)N2C(=O)CCn3nc(-c4c(Cl)cnn4C(C)C)nc32)cc1F [Example 181] |
| < 100 | < 10 | < 10 | < 25 | < 100 | < 25 | CCn1cc(C(F)(F)F)nc1-c1ccc([C@@H](C)N2C(=O)CCn3nc(-c4c(Cl)cnn4C(C)C)nc32)cc1F [Example 182] |
| < 100 | ≥ 10 | ≥ 10 | < 25 | < 100 | > 25 | CCn1cc(C(F)(F)F)nc1-c1ccc([C@H](C)N2C(=O)CCn3nc(-c4c(OC)ncnc4C4CC4)nc32)cc1 [Example 183] |
| < 100 | ≥ 10 | ≥ 10 | > 25 | < 100 | < 25 | CCn1cc(C(F)(F)F)nc1-c1ccc([C@@H](C)N2C(=O)CCn3nc(-c4c(OC)ncnc4C4CC4)nc32)cc1 [Example 184] |
| < 100 | < 10 | < 10 | > 25 | 100 to 500 | > 25 | CCn1cc(C(F)(F)F)nc1-c1ccc(CN2C(=O)CCn3nc(-c4c(Cl)cnn4C(C)C)nc32)cn1 [Example 186] |
| 100 to 500 | ≥ 10 | ≥ 10 | > 25 | < 100 | > 25 | COc1ncnc(C2CC2)c1-c1nc2n(n1)CCC(=O)N2[C@@H](C)c1ccc(-c2nc(C(F)(F)F)cn2C(C)C)cc1 [Example 188] |
| < 100 | ≥ 10 | ≥ 10 | > 25 | < 100 | > 25 | COc1ncnc(C2CC2)c1-c1nc2n(n1)CCC(=O)N2[C@H](C)c1ccc(-c2nc(C(F)(F)F)cn2C(C)C)cc1 [Example 189] |
| < 100 | ≥ 10 | ≥ 10 | > 25 | < 100 | > 25 | CCn1cc(C(F)(F)F)nc1-c1ccc([C@H](C)N2C(=O)CCn3nc(-c4c(OC)ncnc4C4CC4)nc32)cc1F [Example 190] |
| < 100 | < 10 | < 10 | > 25 | < 100 | < 25 | CCn1cc(C(F)(F)F)nc1-c1ccc([C@@H](C)N2C(=O)CCn3nc(-c4c(OC)ncnc4C4CC4)nc32)cc1F [Example 191] |
| < 100 | < 10 | < 10 | < 25 | < 100 | < 25 | CCn1cc(C(F)(F)F)nc1-c1ccc([C@H](C)N2C(=O)CCn3nc(-c4c(Cl)cnn4C(C)C)nc32)cc1 [Example 193] |
